The text below walks through data of US8569336B2, “Compounds for the treatment of inflammatory disorders” (priority 2008, dated 2013).

Read-outs that look alike come from different tables or passages of the source. Where only a bound is given, the exact number is not on record here.

Assay [1] addresses T1, purified catalytic domain of recombinant human TACE (rhTACEc) (Homo sapiens, UniProt P78536, N452Q/S266A).
T1 construct: 6xHis (C); made in house; host or cells: baculovirus/Hi5 insect cells
As to the kind of experiment: TACE kinetic assay: cleavage of internally quenched peptide substrate TNF-FRET 2 (Ki). The settings on record: TNF-FRET 2 substrate. The class given is biochemical.

The subject of assay [2] is TNF-α production from human whole blood. As to the kind of experiment: Inhibition of TNF-α production from human whole blood (hWBA), LPS stimulated, ELISA. The class given is cell-based. The settings on record: Homo sapiens, TNF-α by ELISA, read-out: hWBA (IC50).
Setting [3] is: 3.5 h, human whole blood diluted 1:1, LPS stimulated, 3.5 h.
Setting [4] is: human whole blood diluted 1:1, LPS stimulated.
Setting [5] is: LPS-stimulated human whole blood.

T1 sequence (P78536 215-477 S266A/N452Q): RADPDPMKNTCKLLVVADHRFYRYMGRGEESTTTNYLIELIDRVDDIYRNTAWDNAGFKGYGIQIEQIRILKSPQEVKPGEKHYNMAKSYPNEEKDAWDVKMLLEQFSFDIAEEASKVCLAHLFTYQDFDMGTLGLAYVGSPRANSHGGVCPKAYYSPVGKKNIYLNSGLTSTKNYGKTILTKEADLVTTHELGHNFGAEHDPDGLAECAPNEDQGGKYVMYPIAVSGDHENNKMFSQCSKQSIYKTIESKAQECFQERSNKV

As usually defined, the Ki is the dissociation constant of the complex between target and ligand, obtained from inhibition or displacement. Broadly, the IC50 is the concentration that gives 50% inhibition. Take `COc1ccc2c(c1)C(=O)N(C[C@@]1(c3cc4cc(CN)ccc4o3)NC(=O)NC1=O)C2` [Compound 2182]: the inhibition constant (Ki) in assay [1] (read-out: Ki) amounted to 0.79 nM. In addition, in assay [2] (setting [3]), the IC50 is 532 nM.

Consider `COc1ccc2c(c1)C(=O)N(C[C@@]1(c3cc4ncc(C(=NO)N5CCN(c6cnccn6)CC5)cc4o3)NC(=O)NC1=O)C2` [Compound 2469], for which, in assay [1] (read-out: Ki), the Ki came to 0.59 nM. Besides, the 50% inhibitory concentration (IC50) in assay [2] (setting [4]) was 546 nM.

In the case of `COc1ccc2c(c1)C(=O)N(C[C@@]1(c3cc4ncc(CO)cc4o3)NC(=O)NC1=O)C2` [Compound 2320], the inhibitory constant (Ki) in assay [1] (read-out: Ki) came to 0.586 nM. Further, the half-inhibitory concentration (IC50) in assay [2] (setting [4]) was determined as 609 nM.

As for `COc1ccc2c(c1)C(=O)N(C[C@@]1(c3cc4cc(-c5cnn(C)c5)ncc4o3)NC(=O)NC1=O)C2` [Compound 306], the inhibitory constant (Ki) in assay [1] (read-out: Ki) stood at 0.661 nM. Further, the IC50 in assay [2] (setting [5]) came to 658 nM.

As to `COc1ccc2c(c1)C(=O)N(C[C@@]1(c3cc4nc(N(c5cn[nH]c5)C5CCNCC5)ccc4o3)NC(=O)NC1=O)C2` [Compound 1722], in assay [1] (Ki), the inhibition constant (Ki) stood at 0.39 nM. The IC50 in assay [2] (setting [5]) came to 93 nM.

With `COc1ccc2c(c1OC)C(=O)N(C[C@@]1(c3cc4nc(C)c(Br)cc4o3)NC(=O)NC1=O)C2` [Compound 1918], in assay [1] (read-out: Ki), the Ki is 2.48 nM. Further, the 50% inhibitory concentration (IC50) in assay [2] (setting [5]) came out at 34200 nM.

As for `COc1ccc2c(c1)C(=O)N(C[C@@]1(c3cc4ccc(C(N)=O)cc4o3)NC(=O)NC1=O)C2` [Compound 2408], in assay [1] (read-out: Ki), the Ki stood at 0.49 nM. In addition, in assay [2] (setting [4]), the 50% inhibitory concentration (IC50) worked out at 132 nM.

As to `COc1ccc2c(c1)C(=O)N(CC1(c3cc4cc(-c5cc(=O)[nH]c(N)n5)ccc4o3)NC(=O)NC1=O)C2` (stereo not drawn) [Compound 2224], the Ki in assay [1] (Ki) was 0.313 nM. The IC50 in assay [2] (setting [3]) turned out to be 139 nM.

On to `COc1ccc2c(c1)C(=O)N(C[C@@]1(c3cc4cc(C5(C)NC(=O)NC5=O)cc(C)c4o3)NC(=O)NC1=O)C2` (stereo partly drawn) [Compound 2211], for which, in assay [1] (read-out: Ki), the Ki is 0.216 nM. For the same molecule, the IC50 in assay [2] (setting [3]) was found to be 1550 nM.

Take `COc1ccc2c(c1)C(=O)N(C[C@@]1(c3cc4cc(-c5cccc(C#N)c5)ncc4o3)NC(=O)NC1=O)C2` [Compound 2432]: the Ki in assay [1] (read-out: Ki) worked out at 0.92 nM. For the same molecule, the IC50 in assay [2] (setting [4]) is 1720 nM.

Regarding `COc1cc2c(cc1OC)C(=O)N(C[C@]1(c3cc4cnccc4o3)NC(=O)NC1=O)C2` [Compound 201], the Ki in assay [1] (read-out: Ki) came out at 149 nM. Moreover, the IC50 in assay [2] (setting [5]) was found to be 6660 nM.

With `COc1ccc2c(c1)C(=O)N(C[C@@]1(c3cc4cc(CNC5CCCCC5)ccc4o3)NC(=O)NC1=O)C2` [Compound 2180], the Ki in assay [1] (read-out: Ki) was 0.443 nM. Moreover, the IC50 in assay [2] (setting [3]) was found to be 617 nM.

As for `COc1ccc2c(c1F)C(=O)N(C[C@]1(C3=CC(c4ccccc4)N(C)O3)NC(=O)NC1=O)C2` (stereo partly drawn) [Compound 1525], the inhibition constant (Ki) in assay [1] (read-out: Ki) was found to be 3.2 nM. Also, in assay [2] (setting [5]), the half-maximal inhibitory concentration (IC50) was at least 100000 nM.

In the case of `COc1ccc2c(c1)C(=O)N(C[C@@]1(c3cc4c(o3)CCN(CC(N)=O)C4)NC(=O)NC1=O)C2` [Compound 2268], the Ki in assay [1] (Ki) amounted to 0.702 nM. The IC50 in assay [2] (setting [3]) came to 252 nM.

As for `COc1ccc2c(c1)C(=O)N(C[C@@]1(c3cc4ccc(C(=O)NCC5CCN(C)CC5)cc4o3)NC(=O)NC1=O)C2` [Compound 2411], in assay [1] (read-out: Ki), the inhibitory constant (Ki) came out at 1.14 nM. Moreover, the IC50 in assay [2] (setting [4]) was found to be 348 nM.

`CNC1CCN(c2ccc3oc([C@]4(CN5Cc6ccc(OC)cc6C5=O)NC(=O)NC4=O)cc3n2)CC1` [Compound 2139]: in assay [1] (read-out: Ki), the Ki was determined as 1.44 nM. In addition, the IC50 in assay [2] (setting [3]) was found to be 388 nM.

As to `COc1ccc2c(c1)C(=O)N(C[C@@]1(c3ccc(C(=O)N4CCOCC4)cc3)NC(=O)NC1=O)C2` [Compound 2405], the inhibition constant (Ki) in assay [1] (read-out: Ki) is 2.91 nM. The IC50 in assay [2] (setting [4]) turned out to be 2710 nM.

With `COc1ccc2c(c1)C(=O)N(C[C@@]1(c3cn4c5c(sc4n3)CN(C)CC5)NC(=O)NC1=O)C2` [Compound 503], the Ki in assay [1] (read-out: Ki) was found to be 4.23 nM. Further, the IC50 in assay [2] (setting [5]) was found to be 1830 nM.

In the case of `COc1ccc2c(c1F)C(=O)N(C[C@@]1(c3cc4nc(-c5ccc(N(C)C)nc5)ccc4o3)NC(=O)NC1=O)C2` [Compound 1726], the Ki in assay [1] (read-out: Ki) worked out at 1.49 nM. Further, in assay [2] (setting [5]), the IC50 is over 10000 nM.

As to `COc1ccc2c(c1)C(=O)N(C[C@@]1(c3cc4c(NCc5ccccc5)ccnc4o3)NC(=O)NC1=O)C2` [Compound 2248], in assay [1] (Ki), the Ki is 1.61 nM. In addition, in assay [2] (setting [3]), the concentration for half-maximal inhibition (IC50) amounted to 233 nM.

Consider `COc1ccc2c(c1)C(=O)N(C[C@@]1(c3cc4cc(NC(N)=O)ccc4o3)NC(=O)NC1=O)C2` [Compound 2221], for which, in assay [1] (read-out: Ki), the inhibition constant (Ki) came out at 0.099 nM. For the same molecule, the IC50 in assay [2] (setting [3]) was found to be 143 nM.

On to `COc1ccc2c(c1)C(=O)N(C[C@@]1(c3cc4cnc(C#N)cc4o3)NC(=O)NC1=O)C2` [Compound 322], for which, in assay [1] (read-out: Ki), the inhibition constant Ki amounted to 0.67 nM. The 50% inhibitory concentration (IC50) in assay [2] (setting [5]) turned out to be 759 nM.

For the molecule `CCN1CCN(c2ccc3oc([C@]4(CN5Cc6ccc(OC)c(F)c6C5=O)NC(=O)NC4=O)cc3n2)C[C@@H]1C` [Compound 1294], the Ki in assay [1] (read-out: Ki) was determined as 1.1 nM. The IC50 in assay [2] (setting [3]) worked out at 275 nM.

Consider `O=C1NC(=O)[C@](CN2Cc3ccc(OCC4CC4)c(F)c3C2=O)(c2cc3cc4c(c(F)c3o2)C(=O)NC4)N1` [Compound 2493], for which the Ki in assay [1] (read-out: Ki) worked out at 0.49 nM. In addition, the 50% inhibitory concentration (IC50) in assay [2] (setting [4]) was 349 nM.

Regarding `COc1ccc2c(c1)C(=O)N(C[C@@]1(c3cc4nc(C(=O)NCCN(C)C)ccc4o3)NC(=O)NC1=O)C2` [Compound 1927], in assay [1] (read-out: Ki), the inhibitory constant (Ki) was 0.87 nM. Moreover, in assay [2] (setting [5]), the IC50 came to 567 nM.

`COc1ccc2c(c1)C(=O)N(C[C@@]1(c3ccc(-c4ccc(C5(C)NC(=O)NC5=O)cc4)cc3)NC(=O)NC1=O)C2` (stereo partly drawn) [Compound 2205]: the Ki in assay [1] (read-out: Ki) is 0.659 nM. In assay [2] (setting [3]), the 50% inhibitory concentration (IC50) was at least 1000 nM.

Turning to `COc1cc2c(cc1F)CN(C[C@@]1(c3cc4cnccc4o3)NC(=O)NC1=O)C2=O` [Compound 2311], the Ki in assay [1] (read-out: Ki) was determined as 1.72 nM. Also, the half-inhibitory concentration (IC50) in assay [2] (setting [4]) worked out at 942 nM.

In the case of `COc1ccc2c(c1F)C(=O)N(C[C@@]1(c3cc4nc(N5CCCC(C(N)=O)C5)ccc4o3)NC(=O)NC1=O)C2` (stereo partly drawn) [Compound 1517], in assay [1] (read-out: Ki), the inhibitory constant (Ki) came out at 0.5 nM. Also, the IC50 in assay [2] (setting [5]) worked out at 260 nM.

`CCN1CC=C(c2nc3cc([C@]4(CN5Cc6ccc(OC)c(F)c6C5=O)NC(=O)NC4=O)oc3cc2F)CC1` [Compound 1321]: in assay [1] (read-out: Ki), the inhibition constant Ki turned out to be 0.64 nM. Besides, the IC50 in assay [2] (setting [5]) is 184 nM.

As to `COc1ccc2c(c1F)C(=O)N(C[C@@]1(c3cc4c(F)cnc(C)c4o3)NC(=O)NC1=O)C2` [Compound 1314], in assay [1] (read-out: Ki), the Ki is 1.2 nM. Moreover, the IC50 in assay [2] (setting [5]) stood at 727 nM.

Regarding `COc1ccc2c(c1)C(=O)N(C[C@@]1(c3cc4cc(C5(C)CNC(=O)N5)cc(C)c4o3)NC(=O)NC1=O)C2` (stereo partly drawn) [Compound 2212], in assay [1] (read-out: Ki), the Ki was 0.095 nM. In assay [2] (setting [3]), the IC50 was determined as 2860 nM.

With `COc1ccc2c(c1)C(=O)N(C[C@@]1(c3ccc(C(=O)O)cc3)NC(=O)NC1=O)C2` [Compound 2404], in assay [1] (read-out: Ki), the inhibition constant Ki turned out to be 3.15 nM. In addition, in assay [2] (setting [4]), the IC50 amounted to 1710 nM.

On to `COc1ccc2c(c1)C(=O)N(C[C@@]1(c3cc4c(N5CCNC5=O)nccc4o3)NC(=O)NC1=O)C2` [Compound 2292], for which the Ki in assay [1] (read-out: Ki) was found to be 1.32 nM. For the same molecule, the IC50 in assay [2] (setting [4]) was found to be 485 nM.

For `COc1ccc2c(c1)C(=O)N(C[C@@]1(c3cc4nc(-c5cc[nH]c5)ccc4o3)NC(=O)NC1=O)C2` [Compound 1900], the inhibition constant (Ki) in assay [1] (read-out: Ki) amounted to 0.57 nM. Moreover, the concentration for half-maximal inhibition (IC50) in assay [2] (setting [5]) stood at 459 nM.

As for `COc1ccc2c(c1)C(=O)N(C[C@@]1(c3cc4cc(-c5cccc(O)c5)ncc4o3)NC(=O)NC1=O)C2` [Compound 2242], in assay [1] (read-out: Ki), the Ki was 0.566 nM. The IC50 in assay [2] (setting [3]) was 3390 nM.

For `CCNc1nnc(-c2ccc3oc([C@]4(CN5Cc6ccc(OC)cc6C5=O)NC(=O)NC4=O)cc3n2)o1` [Compound 1906], the Ki in assay [1] (read-out: Ki) came to 0.77 nM. In assay [2] (setting [5]), the IC50 stood at 606 nM.
